Values quoted from earlier work in article PMC6099358 (Diabetes, Obesity & Metabolism, 2018).
Where two headings read alike, the source gives them in different places.

Tested on: participants with T1DM
Details: cited from earlier work

| Structure (SMILES) | DKA (vs placebo 4 [0.6%]) | DKA (100 mg, vs placebo 0) | DKA (300 mg, vs placebo 0) |
| --- | --- | --- | --- |
| CCOc1ccc(Cc2cc([C@@H]3O[C@H](SC)[C@@H](O)[C@H](O)[C@H]3O)ccc2Cl)cc1 [sotagliflozin] | 21 [3.0%] participants [%] |  |  |
| Cc1ccc([C@@H]2O[C@H](CO)[C@@H](O)[C@H](O)[C@H]2O)cc1Cc1ccc(-c2ccc(F)cc2)s1 [canagliflozin] |  | 5 [4.3%] participants [%] | 7 [6.0%] participants [%] |
